Our source for the cell growth and Sox2 protein level values is patent publication US9918983B2, “Suicidal LSD1 inhibitors targeting SOX2-expressing cancer cells” (THE BOARD OF REGENTS OF THE NEVADA SYSTEM OF HIGHER …, priority 2013, dated 2018).

Each structure is given as a SMILES string.

Type in all cases: cell-based, human
In experiment [1] the test system is A549 cells. As to the kind of experiment: Cell growth/viability (MTT, microscopy). The following applies: 50 μM, 30 hr. The protocol:
(§1) Lung, breast, ovarian, and other carcinoma cells were either obtained from American Type Culture Collection (ATCC) or from the DTP and DCTD Tumor Repository of National Cancer Institute (the NCI-60 cancer cell line panel), operated by Charles River Laboratory, Inc., as listed in Table 1. They were cultured according to instructions and treated with various concentrations of LSD1 inhibitors for 30-36 hours for mRNA analysis by quantitative real time RT-PCR or for 30-48 hours for protein analysis and the cell viability assays using Western blotting or microscopy and MTT assays as described previously (Wang, J., et al. (2011) Cancer Research 71, 7238-7249).
(§2) Alternatively, cell viability assays were conducted as previously described (Wang, J., et al. (2011) Cancer Research 71, 7238-7249). For the MTT assay, cells were seeded onto 96-well culture plates with a density of 2000-5000 cells/well, and incubated with CBB1003 or CBB1007 at various concentrations from 1 to 100 μM for 30-48 hours, depending cell growth rate. Dimethylsulfoxide (DMSO) was used as a solvent control. MTT was added to a final concentration of 0.5 mg/mL and cells were re-incubated for 4 hours. After removing the medium, 200 μL DMSO was added to dissolve formazan, followed by incubation for 10 minutes, and absorbance was measured at 490 nm by a Bio Red microplate reader. All assays were performed in triplicates for each concentration. The cell viability rate was calculated as the relative percentage of MTT absorption as follows: % cell viability=(mean experimental absorbance/mean control absorbance)×100. […]
(§3) Referring to FIG. 5C, the percent viability of cells treated with LSD1 inhibitors or siRNAs compared with control cells, as determined by 3-(4,5-dimethylthiazol-2-yl)-2,5-diphenyltetrazolium bromide (MTT) assay is shown. […] The statistical differences between inhibitor-treated and control groups were analyzed by one-way ANOVA (scale bar=[…]; **p<0.01).

For experiment [2], the system named is NCI-H520 cells. The experiment is described as follows: Cell growth/viability (MTT, microscopy). Conditions: 24-30 hr (50 μM, 30 hr in FIG. 5B). As to the method:
as §1, §2, §3

In experiment [3] the test system is NCI-H1437 cells. As to the kind of experiment: Cell growth/viability (MTT, microscopy). The following applies: 24-30 hr (50 μM, 30 hr in FIG. 5B). The protocol:
as §1, §2, §3

Experiment [4] deals with Sox2. The experiment is described as follows: Sox2 protein level by western blotting in carcinoma cells. More on the design: dose or concentration left out as unconfirmed. Conditions: indicated carcinoma cells, 30 hr. The source says:
Log-phase growing cancer cells were directly lysed in a buffer containing 0.5% SDS. Proteins in the lysates were equalized and analyzed by Western blotting using antibodies against Sox2, LSD1, H3K4Me1, H3K4Me2, Oct4, and other proteins as described previously or in the figure descriptions (Wang, J., et al. (2011) Cancer Research 71, 7238-7249). For immunohistochemical staining, rabbit monoclonal anti-LSD1 (clone C69G12, cat. #2184) and anti-Sox2 (clone D6D9, cat. #3579) antibodies were obtained from Cell Signaling. Rabbit anti-Sox2 polyclonal antibodies were raised using the purified GST-Sox2 fusion protein as the antigen.
Referring to FIG. 11A, inactivation of LSD1 by LSD1 inhibitors or siRNAs caused the downregulation of Sox2. The indicated carcinoma cells were treated with […] of the LSD1 inhibitors CBB1007 and CBB1003 for 30 hr or with 50 nM of Luc or LSD1 siRNAs for 60 hr. The protein levels of LSD1, Sox2, Lin28, CUL1, and histone H3 were analyzed by western blotting.
A general note: A western blot detects proteins with antibodies after separation by electrophoresis.

Experiment [5] has as its system ES-2 cells. The experiment is described as follows: Cell growth/viability (MTT, microscopy). The following applies: ES-2 cells, 50 μM, 30 hours. As to the method:
as §1
Alternatively, cell viability assays were conducted as previously described (Wang, J., et al. (2011) Cancer Research 71, 7238-7249). […] Dimethylsulfoxide (DMSO) was used as a solvent control. MTT was added to a final concentration of 0.5 mg/mL and cells were re-incubated for 4 hours. After removing the medium, 200 μL DMSO was added to dissolve formazan, followed by incubation for 10 minutes, and absorbance was measured at 490 nm by a Bio Red microplate reader. All assays were performed in triplicates for each concentration. The cell viability rate was calculated as the relative percentage of MTT absorption as follows: % cell viability=(mean experimental absorbance/mean control absorbance)×100.
Table 8 below lists activity of CBB3001 (compound 10) in Sox2-negative (ES-2) and Sox2-expressing (PA-1 and T47D) cancer cells determined in a cell-based assay as described herein (see also FIG. 3A-C).

The subject of experiment [6] is G401 cells. The experiment is described as follows: Cell growth/viability (MTT, microscopy). The following applies: 50 μM, 30 hours. The protocol:
as §1
Alternatively, cell viability assays were conducted as previously described (Wang, J., et al. (2011) Cancer Research 71, 7238-7249). […] After removing the medium, 200 μL DMSO was added to dissolve formazan, followed by incubation for 10 minutes, and absorbance was measured at 490 nm by a Bio Red microplate reader. […] The cell viability rate was calculated as the relative percentage of MTT absorption as follows: % cell viability=(mean experimental absorbance/mean control absorbance)×100.
Referring to FIG. 10B, Sox2-expressing myelogenous leukemia and rhabdoid tumor cells were also sensitive to LSD1 inhibitors. […] The statistical differences between compound treated and control groups were analyzed by One-way ANOVA. *: p<0.05 and **: p<0.01.

The subject of experiment [7] is BT-549 cells. As to the kind of experiment: Cell growth/viability (MTT, microscopy). Conditions: BT549 cells, 50 μM, 30 hours. As to the method:
as §1
(§4) Alternatively, cell viability assays were conducted as previously described (Wang, J., et al. (2011) Cancer Research 71, 7238-7249). For the MTT assay, cells were seeded onto 96-well culture plates with a density of 2000-5000 cells/well, and incubated with CBB1003 or CBB1007 at various concentrations from 1 to 100 μM for 30-48 hours, depending cell growth rate. Dimethylsulfoxide (DMSO) was used as a solvent control. MTT was added to a final concentration of 0.5 mg/mL and cells were re-incubated for 4 hours. After removing the medium, 200 μL DMSO was added to dissolve formazan, followed by incubation for 10 minutes, and absorbance was measured at 490 nm by a Bio Red microplate reader. All assays were performed in triplicates for each concentration. The cell viability rate was calculated as the relative percentage of MTT absorption as follows: % cell viability=(mean experimental absorbance/mean control absorbance)×100.

The subject of experiment [8] is SKOV-3 cells. The experiment is described as follows: Cell growth/viability (MTT, microscopy). Conditions: 50 μM, 30 hours. As to the method:
as §1, §4

The subject of experiment [9] is MCF7 cells. The experiment is described as follows: Cell growth/viability (MTT, microscopy). The following applies: 50 μM, 30 hours. The protocol: as §1, §4
Experiment [10] deals with SK-BR-3 cells. The experiment is described as follows: Cell growth/viability (MTT, microscopy). Conditions: 50 μM, 30 hours. As to the method: as §1, §4
For experiment [11], the system named is IGROV-1 cells. The experiment is described as follows: Cell growth/viability (MTT, microscopy). The following applies: 50 μM, 30 hours. As to the method:
as §1, §4

In experiment [12] the test system is HS38.T cells. The experiment is described as follows: Cell growth/viability (MTT, microscopy). The following applies: 50 μM, 30 hours. The protocol: as §1, §4

With `COC(=O)c1cc(CN2CCN(C(=N)N)CC2)cc(C(=O)N2CCN(C(=O)c3ccc(C(=N)N)cc3)CC2)c1` [CBB1007], the cell growth result is “specifically inhibited the growth” in [1]; “selectively and specifically inhibit the growth” in experiment [2]; “no detectable effects” in experiment [3]; “not sensitive” in experiment [5]; “inhibited” in experiment [6]; “not sensitive” in [7]. Moreover, the cell growth result is “sensitive” in experiment [8]; “sensitive” in experiment [9]; “not sensitive” in experiment [10]; “sensitive” in experiment [11]; “not sensitive” in experiment [12]. Besides, the Sox2 protein level entry in [4] was “downregulation”.
